{"source": "paper PMC4815073", "about": "“Targeting of tubulin polymerization and induction of mitotic blockage by Methyl 2-(5-fluoro-2-hydroxyphenyl)-1H-benzo[d]imidazole-5-carboxylate (MBIC) in human cervical cancer HeLa cell” (Journal of Experimental & Clinical Cancer Research : CR, 2016)", "key": {"HepG-2 cells": {"test_system": "HepG-2 cells", "test": "MTT cytotoxicity assay, HepG-2", "type": "cell-based, human", "details": "for IC50: Homo sapiens, HepG2, MTT", "text": "(§1) The human cervical cancer cell-line, HeLa (CCL-2.2; ATCC, Manassas, VA), HCT-116 (CCL-247; ATCC, Manassas, VA), A549 (CCL-185; ATCC, Manassas, VA), HepG-2 (HB-8065; ATCC, Manassas, VA) and WRL-68 (CL-48; ATCC, Manassas, VA), were obtained from American Type Culture Collection (ATCC). HeLa, A549, HepG2 and WRL68 cells were maintained in Dulbecco’s Modified Eagle Medium (DMEM, Life Technologies, Inc, Rockville, MD). HCT-116 was obtained in McCoy’s 5a Medium Modified (Life Technologies, Inc, Rockville, MD) supplemented with 10 % fetal bovine serum and 1 % penicillin/streptomycin. Cells were incubated at 37 °C in a humidified cell culture 5 % CO2 incubator. Cells were passaged until reaching 70-80-% confluency for experimental purposes.\n(§2) Cytotoxicity of MBIC was estimated by MTT assay. Briefly, 1 × 10^4 cells/well were seeded in a 96-well plate and incubated at 37 °C in 5 % CO2. After 24 h, cells were treated with different concentrations (0.02, 0.04, 0.1, 0.2, 0.4, 0.8, 1.5, 3, 6, 12, 25, 50 μM) of MBIC. 0.01 % DMSO was used as vehicle control. Cells were incubated for 24 and 48 h at 37 °C. Subsequently, 50 μl/well of 3-(4,5-dimethylthiazol-2-yl)-2,5-diphenyltetrazolium bromide (MTT, 2 mg/ml) was added and incubated for 2 h. After the incubation, the media was discarded and 100 μl DMSO was replaced into each well to dissolve the formazan crystal. The colorimetric assay was quantified at 570 nm wavelength using Chameleon V microplate reader (Hidex, Turku, Finland). The anti-proliferation activity of MBIC was expressed as an IC50 value. The percentage of cell viability was calculated as described previously."}, "WRL-68 cells": {"test_system": "WRL-68 cells", "test": "MTT cytotoxicity assay, WRL-68 normal liver cells", "type": "cell-based, human", "details": "Homo sapiens", "text": "as §1, §2"}, "HCT-116 cells": {"test_system": "HCT-116 cells", "test": "MTT cytotoxicity assay, HCT-116", "type": "cell-based, human", "details": "for IC50: Homo sapiens, MTT", "text": "as §1, §2"}, "tubulin": {"target": "T1, tubulin (Sus scrofa, UniProt P02550+P02554)", "T1 construct": "purchased Cytoskeleton BK011P", "T1 sequence (P02550 whole entry)": "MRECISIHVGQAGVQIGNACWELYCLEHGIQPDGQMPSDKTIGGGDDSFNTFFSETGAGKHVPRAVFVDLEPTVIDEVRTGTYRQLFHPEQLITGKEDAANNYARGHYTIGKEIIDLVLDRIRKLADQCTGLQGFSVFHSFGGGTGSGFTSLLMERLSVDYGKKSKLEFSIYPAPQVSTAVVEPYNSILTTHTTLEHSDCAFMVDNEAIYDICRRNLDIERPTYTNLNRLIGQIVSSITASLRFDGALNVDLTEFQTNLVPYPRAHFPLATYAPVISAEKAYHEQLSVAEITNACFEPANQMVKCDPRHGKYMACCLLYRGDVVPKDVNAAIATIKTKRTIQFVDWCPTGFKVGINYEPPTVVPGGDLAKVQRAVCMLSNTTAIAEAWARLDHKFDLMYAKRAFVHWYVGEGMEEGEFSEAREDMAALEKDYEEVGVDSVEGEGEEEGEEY", "T1 sequence (P02554 whole entry)": "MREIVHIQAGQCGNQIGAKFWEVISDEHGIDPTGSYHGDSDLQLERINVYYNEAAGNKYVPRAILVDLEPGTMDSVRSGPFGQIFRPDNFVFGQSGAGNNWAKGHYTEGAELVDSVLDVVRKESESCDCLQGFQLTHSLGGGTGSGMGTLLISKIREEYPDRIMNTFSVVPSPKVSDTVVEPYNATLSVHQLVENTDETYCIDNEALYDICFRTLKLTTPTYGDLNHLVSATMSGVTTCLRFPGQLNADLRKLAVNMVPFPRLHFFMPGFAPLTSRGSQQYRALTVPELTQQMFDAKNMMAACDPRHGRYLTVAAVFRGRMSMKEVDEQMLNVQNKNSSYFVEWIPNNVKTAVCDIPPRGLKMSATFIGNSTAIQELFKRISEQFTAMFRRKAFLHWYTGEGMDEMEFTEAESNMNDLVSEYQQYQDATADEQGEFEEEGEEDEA", "test": "Tubulin polymerization assay", "type": "biochemical", "details": "10 μM drug, 3 mg/ml tubulin, 37 °C, 340 nm; untreated 12 mOD/min", "description": "To investigate the effect of MBIC on tubulin polymerization, a fluorescence-based tubulin polymerization assay kit (Cytoskeleton-Cat. # BK011P) was used according to the manufacturer’s protocol. Briefly, 200 μl of pure tubulin protein was re-suspended in 420 μl of ice cold Tubulin Polymerization Buffer (TPB) to give a final concentration of 3 mg/ml tubulin, supplemented with 80 mM PIPES, 2 mM MgCl2, 0.5 mM EGTA, 1 mM GTP, 20 % (v/v) glycerol. 100 μl of tubulin reaction mixture were added to each well in a 96-well plate containing the selected concentration of MBIC (10 μM). […] Samples were mixed well and the tubulin assembly was monitored by an increase in fluorescence emission at 340 nm in kinetic mode for 120 min at 37 °C using a plate reader (Infinite® 200 PRO—Tecan plate reader, USA)."}, "[1]": {"test_system": "HeLa cells expressing EGFP-α-tubulin, EGFP-CENP-A and histone H2B-mCherry", "test": "Live-cell imaging of mitotic spindle", "type": "cell-based, human", "details": "MBIC 10 μM, nocodazole 2 μM; imaged at 15 min intervals", "description": "HeLa cells expressing EGFP-α-tubulin, EGFP-CENP-A and histone H2B-mCherry were grown in glass chambers (Thermo Scientific, USA). Thirty minutes before imaging, the medium was changed to pre-warmed Leibovitz’s L-15 medium (Life Technologies) supplemented with 20 % fetal bovine serum and 20 mM HEPES, pH 7.0. Recordings were made in a temperature-controlled incubator at 37 °C. Images were collected with an Olympus IX-71 inverted microscope (Olympus) controlled by DeltaVision softWoRx (Applied Precision) using a 20x 0.75 NA UPlan SApochromat objective lens (Olympus). Z-series of six sections in 3 μm increments were captured every 15 min. Image stacks were projected."}, "HeLa cells": {"test_system": "HeLa cells", "test": "MTT cytotoxicity assay, HeLa", "type": "cell-based, human", "details": "for IC50: Homo sapiens, HeLa, MTT; for SI (Selectivity Index): IC50 WRL-68 / IC50 HeLa", "text": "as §1, §2"}, "[2]": {"test_system": "human cancer cell lines (HCT-116, A549, HepG-2, HeLa)", "test": "MTT cytotoxicity assay, human cancer cell lines taken together", "type": "cell-based", "text": "as §1\nas §2, with “Subsequently, 50 μl/well of 3-(4,5-dimethylthiazol-2-yl)-2,5-diphenyltetrazolium bromide (MTT, 2 mg/ml) was added and incubated for 2 h. After the incubation, the media was discarded and 100 μl DMSO was replaced into each well to dissolve the formazan crystal.” left out"}, "A549 cells": {"test_system": "A549 cells", "test": "MTT cytotoxicity assay, A549", "type": "cell-based, human", "details": "for IC50: Homo sapiens, MTT", "text": "as §1, §2"}, "[3]": {"test_system": "Bcl-2, Bax, cleaved caspase-3/7/9, cleaved PARP", "test": "Western blot, mitochondrial-dependent apoptotic proteins in HeLa cells", "type": "cell-based, human", "details": "HeLa, 0.21, 0.42 and 1 μM, 24 h", "description": "Western blot analysis was used to investigate protein expression levels. It was adopted by Suresh Kumar et al.. Briefly, 1 × 10^5 cells/flask was seeded and treated with MBIC in a dose-dependent manner for 24 h. Cells treated with colchicine and nocodazole served as positive controls. Cells were collected and lysed in RIPA buffer supplemented with a 10 μl protease inhibitor cocktail, sodium orthovanadate, and PMSF (Santa Cruz, USA). The lysate was stored at −80 °C until further use. A 40 μg of sample protein was resolved on 10 % SDS-PAGE and transferred to a polyvinylidene difluoride (PVDF) membrane (Merck Millipore, USA). The membrane was blocked in 5 % BSA for 1 h at room temperature following an overnight incubation at 4 °C with the following primary antibodies: Anti-Cyclin B1, anti-CDK1, anti-BubR1, anti-Aurora B, anti-cleaved PARP, anti-cleaved caspase-3/7/9, anti-Bcl-2 and anti-Bax (1:1000) (Cell Signaling Technology (CST), USA), mouse anti β-actin (1:40000) (Sigma-Aldrich, USA) antibodies.\nMembranes were washed with 1X TBS-T prior to incubating with HRP-conjugated goat anti-mouse or anti-rabbit secondary antibodies for 2 h at room temperature. Membranes were washed 3 times with 1X TBS-T to remove excess antibodies before the proteins-antibody complex was detected with Amersham ECL prime western blotting detection reagent (GE Healthcare, USA). Western blot images were quantified and processed by ImageJ software (NIH, USA)."}}, "data": [{"smiles": "COC(=O)c1ccc2[nH]c(-c3cc(F)ccc3O)nc2c1", "note": "[MBIC, Methyl 2-(5-fluoro-2-hydroxyphenyl)-1H-benzo[d]imidazole-5-carboxylate]", "values": [{"measurement": "IC50", "setting": "HepG-2 cells; HepG-2, 24 hours", "result": "2920 ± 100", "unit": "nM"}, {"measurement": "IC50", "setting": "HepG-2 cells; HepG-2, 48 hours", "result": "1030 ± 90", "unit": "nM"}, {"measurement": "SI (Selectivity Index)", "setting": "HepG-2 cells; IC50 WRL-68 / IC50 HepG-2, 24 hours", "result": 3.45}, {"measurement": "SI (Selectivity Index)", "setting": "HepG-2 cells; IC50 WRL-68 / IC50 HepG-2, 48 hours", "result": 6.95}, {"measurement": "IC50", "setting": "WRL-68 cells; WRL68, 24 hours", "result": "10100 ± 1200", "unit": "nM"}, {"measurement": "IC50", "setting": "WRL-68 cells; WRL68, 48 hours", "result": "7160 ± 900", "unit": "nM"}, {"measurement": "IC50", "setting": "HCT-116 cells; HCT-116, 24 hours", "result": "2720 ± 400", "unit": "nM"}, {"measurement": "IC50", "setting": "HCT-116 cells; HCT-116, 48 hours", "result": "2010 ± 300", "unit": "nM"}, {"measurement": "SI (Selectivity Index)", "setting": "HCT-116 cells; IC50 WRL-68 / IC50 HCT-116, 24 hours", "result": 3.70}, {"measurement": "SI (Selectivity Index)", "setting": "HCT-116 cells; IC50 WRL-68 / IC50 HCT-116, 48 hours", "result": 3.56}, {"measurement": "Tubulin polymerization maximal velocity (Vmax)", "setting": "tubulin", "result": 2.45, "unit": "mOD/min"}, {"measurement": "mitotic spindle formation in live-cell imaging", "setting": "[1]", "result": "did not form the spindle"}, {"measurement": "IC50", "setting": "HeLa cells; 24 hours", "result": "210 ± 20", "unit": "nM"}, {"measurement": "IC50", "setting": "HeLa cells; 48 hours", "result": "190 ± 30", "unit": "nM"}, {"measurement": "SI (Selectivity Index)", "setting": "HeLa cells; 24 hours", "result": 48.04}, {"measurement": "SI (Selectivity Index)", "setting": "HeLa cells; 48 hours", "result": 37.68}, {"measurement": "selectivity in HeLa cells", "setting": "HeLa cells; versus WRL-68, 24 and 48 h", "result": "> 30", "unit": "fold"}, {"measurement": "IC50", "setting": "[2]", "result": "< 5000", "unit": "nM"}, {"measurement": "IC50", "setting": "A549 cells; A549, 24 hours", "result": "1290 ± 70", "unit": "nM"}, {"measurement": "IC50", "setting": "A549 cells; A549, 48 hours", "result": "530 ± 100", "unit": "nM"}, {"measurement": "SI (Selectivity Index)", "setting": "A549 cells; IC50 WRL-68 / IC50 A549, 24 hours", "result": 7.82}, {"measurement": "SI (Selectivity Index)", "setting": "A549 cells; IC50 WRL-68 / IC50 A549, 48 hours", "result": 13.50}, {"measurement": "Bax protein level (Western blot)", "setting": "[3]", "result": "up-regulation"}, {"measurement": "Bcl-2 protein level (Western blot)", "setting": "[3]", "result": "down-regulation"}, {"measurement": "cleaved (activated) caspase-3/7/9 level (Western blot)", "setting": "[3]", "result": "increased"}, {"measurement": "cleaved PARP level (Western blot)", "setting": "[3]", "result": "increased level"}]}]}
